Measured values reported in article PMC11317440, “Soloxolone para-methylanilide effectively suppresses aggressive phenotype of glioblastoma cells including TGF-β1-induced glial-mesenchymal transition in vitro and inhibits growth of U87 glioblastoma xenografts in mice” (Frontiers in Pharmacology, 2024).

How the values were obtained:
[1] = system: aldehyde dehydrogenase (ALDH) activity in U87 primary tumorspheres; assay: ALDH activity in U87 tumorspheres (AldeRed, flow cytometry); type: cell-based, human; details: 7 at 50 and 100 nM, regardless of the dose, 4 days
Procedure: To assess ALDH activity, U87 cells were dissociated from spheroids using TrypLE Express after 4 days of induction with compound 7 (0–100 nM) (n = 3). Cells were then stained with the AldeRed ALDH Detection Assay (SCR150; EMD Millipore, Burlington, MA, USA) according to the manufacturer’s protocol. Experimental controls included U87 cells grown in 2D culture and cells treated with the ALDH inhibitor diethylaminobenzaldehyde (DEAB). Gates of ALDH-positive cells were set according to the inhibitory effect of DEAB on control cells.
(§1) After staining, 10,000 cells per sample were analyzed on a NovoCyte flow cytometer using NovoExpress software (ACEA Biosciences, Inc., USA).

U87 cells [2] = assay: MTT assay 72 h, 7 and TMZ alone and combined, synergy (HSA), U87; type: cell-based, human
Procedure: The drug synergy score was calculated for the dose-response matrix according to the highest single-agent (HSA) model using the SynergyFinder + web application (https://www.synergyfinder.org/).

[3] = system: non-malignant human hFF3 fibroblasts; assay: MTT cell viability assay, hFF3 fibroblasts, 48 h; type: cell-based; details: 7 at 400 nM
Procedure: Cells were seeded in quadruplicate in 96-well plates at 10,000 cells/well and allowed to adhere overnight. The medium was then replaced with serum-free DMEM containing increasing concentrations of soloxolone amides for 48 h. After incubation, 3-(4,5-dimethylthiazol-2-yl)-2,5-diphenyltetrazolium bromide (MTT dye) was added at a final concentration of 0.5 mg/mL and left for 2 h. The resulting formazan crystals were dissolved in DMSO and the optical density was measured at 570 nm using a Multiscan RC plate reader (Thermo LabSystems, Helsinki, Finland).

EPNT-5 cells = assay: Colony formation assay, EPNT-5 cells; type: cell-based, mouse; details: 10 days
Procedure: (§2) U87, U118 and EPNT-5 cells were seeded at a density of 200 cells/well in 96-well plates and treated with increasing concentrations of compound 7 (0–1,000 nM) dissolved in 10% FBS-containing DMEM (n = 5). On day 10, colonies were fixed with 4% formaldehyde and stained with crystal violet dye (0.1% w/v). Images were captured using the iBright 1,500 Imaging System (Invitrogen, USA) and the area of colonies with a minimum diameter of 100 µm was calculated using ImageJ. In the case of overlapping colonies, their total area was calculated. Finally, the area of the formed cell colonies was summed and normalized to the total colony area in the control.

[4] = system: U87 glioblastoma tumor tissue; assay: Histology and immunohistochemistry of U87 xenograft tumors; type: in vivo, athymic nude mice; details: day 19
Procedure: For the histological study, the tumor specimens were fixed in 10% neutral-buffered formalin (BioVitrum, Moscow, Russia), dehydrated in ascending ethanols and xylols and embedded in HISTOMIX paraffin (BioVitrum, Russia). The paraffin sections (3–4 µm) were sliced on a Microm HM 355S microtome (Thermo Fisher Scientific, Waltham, MA, USA) and stained with hematoxylin and eosin.
For the immunohistochemical study, the tumor sections were deparaffinized and rehydrated. Antigen retrieval was carried out after exposure in a microwave oven at 700 W. The samples were incubated with anti-Ki-67 (ab16667, Abcam, Boston, MA, USA) (n = 3), anti-GFAP (ab194325, Abcam, USA) (n = 3), and anti-N-cadherin (ab76011, Abcam, USA) (n = 3) primary antibodies according to the manufacturer’s protocol. Then, the sections were incubated with secondary horseradish peroxidase (HPR)-conjugated antibodies, exposed to the 3,30-diaminobenzidine (DAB) substrate (Rabbit Specific HRP/DAB (ABC) Detection IHC Kit, ab64261, Abcam, USA) and stained with Mayer’s hematoxylin.
Five to ten random fields were examined from the tumor specimens of three mice in each group, for a total of 15–30 test fields.

U87 cells [5] = assay: Annexin V-FITC/propidium iodide flow cytometry, U87, 48 h; type: cell-based, human
Procedure: To observe apoptosis and necrosis, U87 and U118 cells were stained with Annexin V-FITC and propidium iodide (ab14085; Abcam, Inc., Cambridge, MA, USA) after 48 h of incubation with compound 7 (0–2000 nM) according to the manufacturer’s protocol (n = 3). To quantify the total proportion of apoptotic cells in control and experimental groups, the events accumulated in the lower right quadrant (early apoptosis) and upper right quadrant (late apoptosis) were summarized.
as §1

U87 primary tumorspheres = assay: Primary tumorsphere growth, U87; type: cell-based, human
Procedure: For evaluation of spheroid growth, the bottom of the 96-well plate was covered with 1% agarose for non-adherent conditions. U87 cells (5,000 cells/well) were then seeded and allowed to form spheroids for 24 h, after which increasing concentrations of compound 7 (0–1,000 nM) were added (n = 8). Every other day of the 10-day experiment, fresh medium supplemented with compound 7 was added to half of the medium, and the spheroids were photographed using a camera-equipped ZEISS Primo Vert microscope (Carl Zeiss Microscopy GmbH, Jena, Germany). To assess the formation of secondary tumorspheres, cells were dissociated from primary tumorspheres after 4 days of compound 7 stimulation using TrypLE Express and were then seeded into agarose-coated 96-well plates (n = 8). On day 3, the resulting secondary spheroids were examined microscopically. Primary and secondary spheroid areas were quantified using ImageJ.

TGF-β1-induced U87 cells = assay: Cell morphology (cell size) of TGF-β1-induced U87 cells; type: cell-based, human; details: TGF-β1 50 ng/mL, non-toxic concentrations, 48 h
Procedure: After seeding at a concentration of 5,000 cells/well in triplicate in 96-well plates and incubating overnight, U87 and U118 cells were exposed to TGF-β1 (50 ng/mL) and non-toxic concentrations of soloxolone amides for 48 h. An EVOS XL Core microscope with an integrated CMOS camera (Thermo Fisher Scientific, USA) was then used to examine cell morphology at ×20 magnification. Aspect ratio (AR) and area were quantified for at least 150 cells in each experimental group using ImageJ software (NIH, USA).

U87 cells [6] = assay: Colony formation assay, U87 cells; type: cell-based, human; details: 10 days
Procedure: as §2

[7] = U87 primary tumorspheres, 7 1,000 nM

Cc1ccc(NC(=O)[C@@]2(C)CC[C@]3(C)CC[C@]4(C)[C@H](C(=O)C=C5[C@@]6(C)C=C(C#N)C(=O)C(C)(C)C6CC[C@]54C)[C@@H]3C2)cc1 (some centres unmarked) [compound 7, N-p-tolyl-2-cyano-3,12-dioxo-18βH-olean-9(11),1(2)-dien-30-amide]
reduction of the number of ALDH+ cells compared to the control [1]: 2.3 fold | IC50 (U87 cells [2]; Homo sapiens, U-87 MG, MTT): 197 nM | reduction of the cytotoxic effect by NAC (U87 cells [2]; U87, NAC 2 mM, TMZ 125 μM, 7 100 nM): 56.2% | death of hFF3 cells [3]: about 21% | colony growth (EPNT-5 cells; EPNT-5, 7 450 nM): complete abrogation of colony growth | colony growth (EPNT-5 cells; EPNT-5, 7 1,000 nM): complete abrogation of colony growth | inhibition at 0.05 µM (EPNT-5 cells; Mus musculus, 240 h, EPNT-5, 7 50 nM): 56.1% | inhibition at 0.1 µM (EPNT-5 cells; Mus musculus, 240 h, EPNT-5, 7 100 nM): 69% | N-cadherin and GFAP levels in tumor sections (immunohistochemistry) [4]: significantly reduced their levels | reduction in the numerical density of Ki-67-positive cells compared to vehicle [4]: 4 fold | percentage of cells in the right quadrants (apoptosis) (U87 cells [5]; U87, 7 450 nM): 3.7% | necrosis (upper left quadrant) (U87 cells [5]; U87, 7 1,000 nM): 23.4% | percentage of cells in the right quadrants (apoptosis) (U87 cells [5]; U87, 7 1,000 nM): 40% | necrosis (upper left quadrant) (U87 cells [5]; U87, 7 2000 nM): 14.8% | percentage of cells in the right quadrants (apoptosis) (U87 cells [5]; U87, 7 2000 nM): 83.3% | increase of spheroid growth compared to control (U87 primary tumorspheres; U87 primary tumorspheres, 7 50 nM, p-value <0.05): 21% | increase of spheroid growth compared to control (U87 primary tumorspheres; U87 primary tumorspheres, 7 100 nM, not statistically significant): 10.4% | spheroid growth (U87 primary tumorspheres; U87 primary tumorspheres, 7 450 nM): stopping it after 4 days | reduction of tumorsphere size compared to control by day 10 (U87 primary tumorspheres; [7]): 28.6% | spheroid growth (U87 primary tumorspheres; [7]): completely blocking it | concentration causing a large-scale reduction of spheroids (U87 primary tumorspheres; U87 tumorspheres): 1 µM | effect on size/morphology of TGF-β1-induced U87 cells (TGF-β1-induced U87 cells): restored their morphological characteristics to the control cells | inhibition at 0.05 µM (U87 cells [6]; Homo sapiens, U-87 MG, 240 h, U87, 7 50 nM): 48.7% | inhibition at 0.1 µM (U87 cells [6]; Homo sapiens, U-87 MG, 240 h, U87, 7 100 nM): 74.2% | colony area (U87 cells [6]; U87, 7 50 nM): 51.3% | colony area (U87 cells [6]; U87, 7 1,000 nM): 3.9%
